26 compounds from patent publication US10450270B2, “Glyoxamide substituted pyrrolamide derivatives and the use thereof as medicaments for the treatment of hepatitis B” (Janssen Sciences Ireland UC, priority 2013, dated 2019) can be followed below.

One data set concerns HBV. The experiment in a line: Anti-HBV activity, HepG2.117 inducible HBV producing cell line (Tet-off), intracellular HBV DNA by realtime PCR. In kind it is cell-based. The following applies: Hepatitis B virus, 72 h; HepG2.117 cells, 3 days of treatment, intracellular HBV DNA; read-out: HepG2 117 EC50.
Data set [1] in a line: Cytotoxicity in HepG2 cells, Resazurin viability assay. The following applies: human, HepG2 cells. (Alamar Blue is a resazurin reagent that responds to reducing activity.)

The EC50 is the concentration giving half of the maximal effect. The term CC50 denotes the concentration at which the toxic effect on the cells reaches its halfway point. A lower CC50 goes with greater toxicity to the cells. As for `C[C@@H](NC(=O)C(=O)c1c(Cl)c(C(=O)Nc2ccc(F)c(C#N)c2)n(C)c1Br)C(F)(F)F` [Compound 29, 5-bromo-3-chloro-N-(3-cyano-4-fluoro-phenyl)-1-methyl-4-[2-oxo-2-[[(1R)-2,2,2-trifluoro-1-methyl-ethyl]amino]acetyl]pyrrole-2-carboxamide], the EC50 with HBV stood at 0.014 µM. This compound also had a CC50 at 4 days in data set [1] of over 25 µM.

As for `Cc1c(C(=O)C(=O)N[C@H]2CCCC[C@@H]2O)cc(C(=O)Nc2ccc(F)c(C#N)c2)n1C` [Compound 67, N-(3-cyano-4-fluoro-phenyl)-4-[2-[[(1S,2S)-2-hydroxycyclohexyl]amino]-2-oxo-acetyl]-1,5-dimethyl-pyrrole-2-carboxamide], in the data set on HBV, the EC50 worked out at 0.094 µM. The compound further displayed a CC50 at 4 days in data set [1] of over 25 µM.

In the case of `C[C@@H](NC(=O)C(=O)c1cn(C)c(C(=O)Nc2ccc(F)c(C#N)c2)c1F)C(C)(F)F` [Compound 93, N-(3-cyano-4-fluoro-phenyl)-4-[2-[[(1R)-2,2-difluoro-1-methylpropyl]-amino]-2-oxo-acetyl]-3-fluoro-1-methyl-pyrrole-2-carboxamide], the EC50 in the data set with HBV stood at 0.015 µM. Further, the CC50 at 4 days in data set [1] was over 25 µM.

`Cc1c(C(=O)C(=O)NC2(C(F)(F)F)CCOC2)c(Cl)c(C(=O)Nc2ccc(F)c(C#N)c2)n1C` (racemic) [Compound 41, 3-chloro-N-(3-cyano-4-fluoro-phenyl)-1,5-dimethyl-4-[2-oxo-2-[[3-(tri-fluoromethyl)tetrahydrofuran-3-yl]amino]acetyl]pyrrole-2-carboxamide]: the EC50 with HBV is 0.003 µM. This compound yielded a CC50 at 4 days in data set [1] of over 25 µM.

Consider `Cn1cc(C(=O)C(=O)NC2(C)CC(F)(F)C2)c(F)c1C(=O)Nc1ccc(F)c(C#N)c1` [Compound 35, N-(3-cyano-4-fluoro-phenyl)-4-[2-[(3,3-difluoro-1-methyl-cyclobutyl)-amino]-2-oxo-acetyl]-3-fluoro-1-methyl-pyrrole-2-carboxamide], for which, in the data set with HBV, the EC50 came to 0.004 µM. Also, the CC50 at 4 days in data set [1] is over 25 µM.

As for `Cc1c(C(=O)C(=O)NC(C)(C)C(F)(F)F)cc(C(=O)Nc2ccc(F)c(C#N)c2)n1C` [Compound 58, N-(3-cyano-4-fluoro-phenyl)-1,5-dimethyl-4-[2-oxo-2-[(2,2,2-trifluoro-1,1-dimethyl-ethyl)amino]acetyl]pyrrole-2-carboxamide], the EC50 with HBV is 0.006 µM. Moreover, the CC50 at 4 days in data set [1] is over 25 µM.

As to `Cc1c(C(=O)C(=O)N[C@H]2CCC[C@@H]2O)cc(C(=O)Nc2ccc(F)c(C#N)c2)n1C` [Compound 65, N-(3-cyano-4-fluoro-phenyl)-4-[2-[[(1S,2S)-2-hydroxycyclopentyl]amino]-2-oxo-acetyl]-1,5-dimethyl-pyrrole-2-carboxamide], in the data set on HBV, the EC50 turned out to be 0.16 µM. The same compound had a CC50 at 4 days in data set [1] of over 25 µM.

`Cc1c(C(=O)C(=O)NC(C)(C)C)c(F)c(C(=O)Nc2ccc(F)c(C#N)c2)n1C` [Compound 36, 4-[2-(tert-butylamino)-2-oxo-acetyl]-N-(3-cyano-4-fluoro-phenyl)-3-fluoro-1,5-dimethyl-pyrrole-2-carboxamide]: the EC50 with HBV is under 0.004 µM. Also, the CC50 at 4 days in data set [1] is over 25 µM.

In the case of `C[C@@H](NC(=O)C(=O)c1cn(C)c(C(=O)Nc2ccc(F)c(C#N)c2)c1Br)C(F)(F)F` [Compound 26, 3-bromo-N-(3-cyano-4-fluoro-phenyl)-1-methyl-4-[2-oxo-2-[[(1R)-2,2,2-trifluoro-1-methyl-ethyl]amino]acetyl]pyrrole-2-carboxamide], the EC50 in the data set with HBV came to 0.07 µM. Further, the CC50 at 4 days in data set [1] was over 25 µM.

`Cc1c(C(=O)C(=O)NC2(C(F)(F)F)CCC(O)CC2)cc(C(=O)Nc2ccc(F)c(C#N)c2)n1C` (stereo not shown) [Compound 82, N-(3-cyano-4-fluoro-phenyl)-4-[2-[[4-hydroxy-1-(trifluoromethyl)cyclo-hexyl]amino]-2-oxo-acetyl]-1,5-dimethyl-pyrrole-2-carboxamide]: in the data set with HBV, the EC50 is 0.003 µM. For the same compound, the CC50 at 4 days in data set [1] is over 25 µM.

For the compound `C[C@@H](NC(=O)C(=O)c1c(Br)c(C(=O)Nc2ccc(F)c(C#N)c2)n(C)c1Br)C(F)(F)F` [Compound 27, 3,5-dibromo-N-(3-cyano-4-fluoro-phenyl)-1-methyl-4-[2-oxo-2-[[(1R)-2,2,2-trifluoro-1-methyl-ethyl]amino]acetyl]pyrrole-2-carboxamide], the EC50 in the data set on HBV amounted to 0.005 µM. The same compound returned a CC50 at 4 days in data set [1] of over 25 µM.

Consider `Cc1c(C(=O)C(=O)NC(C)(C)CCO)cc(C(=O)Nc2ccc(F)c(C#N)c2)n1C` [Compound 81, N-(3-cyano-4-fluoro-phenyl)-4-[2-[(3-hydroxy-1,1-dimethyl-propyl)amino]-2-oxo-acetyl]-1,5-dimethyl-pyrrole-2-carboxamide], for which the EC50 in the data set with HBV was found to be 0.012 µM. The compound further showed a CC50 at 4 days in data set [1] of over 25 µM.

Turning to `Cn1c(C(=O)Nc2ccc(F)c(C#N)c2)c(Cl)c(C(=O)C(=O)NC(C)(C)C)c1C(F)(F)F` [Compound 33, 4-[2-(tert-butylamino)-2-oxo-acetyl]-3-chloro-N-(3-cyano-4-fluoro-phenyl)-1-methyl-5-(trifluoromethyl)pyrrole-2-carboxamide], in the data set with HBV, the EC50 came to 0.247 µM. In addition, in data set [1], the CC50 at 4 days is over 25 µM.

For the compound `Cc1c(C(=O)C(=O)NC2(CO)CC2)cc(C(=O)Nc2ccc(F)c(C#N)c2)n1C` [Compound 73, N-(3-cyano-4-fluoro-phenyl)-4-[2-[[1-(hydroxymethyl)cyclopropyl]amino]-2-oxo-acetyl]-1,5-dimethyl-pyrrole-2-carboxamide], the EC50 in the data set on HBV turned out to be 0.017 µM. The CC50 at 4 days in data set [1] was over 25 µM.

As to `Cc1c(C(=O)C(=O)NC(C)C)c(Cl)c(C(=O)Nc2ccc(F)c(C#N)c2)n1C` [Compound 45, 3-chloro-N-(3-cyano-4-fluoro-phenyl)-4-[2-(isopropylamino)-2-oxo-acetyl]-1,5-dimethyl-pyrrole-2-carboxamide], the EC50 in the data set on HBV stood at 0.006 µM. Also, the CC50 at 4 days in data set [1] is over 25 µM.

As to `COCC(C)(C)NC(=O)C(=O)c1cn(C)c(C(=O)Nc2ccc(F)c(C#N)c2)c1F` [Compound 96, N-(3-cyano-4-fluoro-phenyl)-3-fluoro-4-[2-[(2-methoxy-1,1-dimethyl-ethyl)amino]-2-oxo-acetyl]-1-methyl-pyrrole-2-carboxamide], the EC50 in the data set with HBV is 0.006 µM. The compound also had a CC50 at 4 days in data set [1] of over 25 µM.

Turning to `C[C@@H](NC(=O)C(=O)c1cn(C)c(C(=O)Nc2ccc(F)c(C#N)c2)c1F)C(F)(F)F` [Compound 85, N-(3-cyano-4-fluoro-phenyl)-3-fluoro-1-methyl-4-[2-oxo-2-[[(1R)-2,2,2-trifluoro-1-methyl-ethyl]amino]acetyl]pyrrole-2-carboxamide], the EC50 in the data set on HBV amounted to 0.014 µM. In data set [1], the CC50 at 4 days is over 25 µM.

As for `Cc1c(C(=O)C(=O)NC(C)(C)CO)cc(C(=O)Nc2ccc(F)c(C#N)c2)n1C` [Compound 94, N-(3-cyano-4-fluoro-phenyl)-4-[2-[(2-hydroxy-1,1-dimethyl-ethyl)amino]-2-oxo-acetyl]-1,5-dimethyl-pyrrole-2-carboxamide], the EC50 with HBV was 0.004 µM. The CC50 at 4 days in data set [1] is over 25 µM.

Consider `Cc1c(C(=O)C(=O)NC2(C)COC2)cc(C(=O)Nc2ccc(F)c(C#N)c2)n1C` [Compound 60, N-(3-cyano-4-fluoro-phenyl)-1,5-dimethyl-4-[2-[(3-methyloxetan-3-yl)-amino]-2-oxo-acetyl]pyrrole-2-carboxamide], for which the EC50 with HBV came out at 0.011 µM. The CC50 at 4 days in data set [1] was over 25 µM.

Turning to `Cc1c(C(=O)C(=O)NC2(C)CC(F)(F)C2)c(F)c(C(=O)Nc2ccc(F)c(C#N)c2)n1C` [Compound 37, N-(3-cyano-4-fluoro-phenyl)-4-[2-[(3,3-difluoro-1-methyl-cyclobutyl)-amino]-2-oxo-acetyl]-3-fluoro-1,5-dimethyl-pyrrole-2-carboxamide], the EC50 in the data set on HBV came to 0.002 µM. The CC50 at 4 days in data set [1] is over 25 µM.

In the case of `Cc1c(C(=O)C(=O)N[C@H]2[C@H](C)CC[C@H]2O)cc(C(=O)Nc2ccc(F)c(C#N)c2)n1C` [Compound 66, N-(3-cyano-4-fluoro-phenyl)-4-[2-[[(1S,2R,5R)-2-hydroxy-5-methyl-cyclopentyl]amino]-2-oxo-acetyl]-1,5-dimethyl-pyrrole-2-carboxamide], in the data set with HBV, the EC50 turned out to be 0.11 µM. Besides, the CC50 at 4 days in data set [1] was over 25 µM.

On to `C[C@@H](NC(=O)C(=O)c1cc(C(=O)Nc2ccc(F)c(C#N)c2)n(C)c1)C(F)(F)F` [Compound 64, N-(3-cyano-4-fluoro-phenyl)-1-methyl-4-[2-oxo-2-[[(1R)-2,2,2-trifluoro-1-methyl-ethyl]amino]acetyl]pyrrole-2-carboxamide], for which the EC50 in the data set on HBV was 0.066 µM. This compound showed a CC50 at 4 days in data set [1] of over 25 µM.

For the compound `Cn1cc(C(=O)C(=O)NC2(C)CC(F)(F)C2)c(Cl)c1C(=O)Nc1ccc(F)c(C#N)c1` [Compound 40, 3-chloro-N-(3-cyano-4-fluoro-phenyl)-4-[2-[(3,3-difluoro-1-methyl-cyclobutyl)amino]-2-oxo-acetyl]-1-methyl-pyrrole-2-carboxamide], the EC50 with HBV was 0.007 µM. The CC50 at 4 days in data set [1] was over 25 µM.

Take `Cn1cc(C(=O)C(=O)NC2(C(F)(F)F)CCC2)c(F)c1C(=O)Nc1ccc(F)c(C#N)c1` [Compound 84, N-(3-cyano-4-fluoro-phenyl)-3-fluoro-1-methyl-4-[2-oxo-2-[[1-(trifluoro-methyl)cyclobutyl]amino]acetyl]pyrrole-2-carboxamide]: the EC50 with HBV stood at 0.003 µM. In data set [1], this compound had a CC50 at 4 days of 21.9 µM.

With `Cc1c(C(=O)C(=O)NC(C)C(C)(C)O)cc(C(=O)Nc2ccc(F)c(C#N)c2)n1C` (stereo not shown) [Compound 72, N-(3-cyano-4-fluoro-phenyl)-4-[2-[(2-hydroxy-1,2-dimethyl-propyl)amino]-2-oxo-acetyl]-1,5-dimethyl-pyrrole-2-carboxamide], in the data set with HBV, the EC50 was 0.018 µM. In data set [1], this compound had a CC50 at 4 days of over 25 µM.

For `C[C@@H](NC(=O)C(=O)c1cc(C(=O)Nc2ccc(F)c(C#N)c2)n(C)c1C1CC1)C(F)(F)F` [Compound 61, N-(3-cyano-4-fluoro-phenyl)-5-cyclopropyl-1-methyl-4-[2-oxo-2-[[(1R)-2,2,2-trifluoro-1-methyl-ethyl]amino]acetyl]pyrrole-2-carboxamide], the EC50 in the data set on HBV came to 0.12 µM. In data set [1], this compound yielded a CC50 at 4 days of over 25 µM.
